Like-named read-outs stand apart in the source and are kept apart here.
How the values were obtained:
[1] = target: Beta Secretase enzyme (BACE) (Homo sapiens, UniProt P56817); assay: In vitro enzymatic BACE FRET (fluorescence resonance energy transfer) assay; format: biochemical; conditions: average IC50, enzyme assay; read-out: BACE 1 FRET assay
In short: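 Fluorescence read after Tris quench (pH raised to neutrality) of a one-hour BACE reaction. Buffer: acetate 0.05 M, pH 4.2, with 100 uM genapol and 10% DMSO final; started by adding 50 nM FRET peptide substrate spanning the cleavage site.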

[2] = tested on: Aβ40 in conditioned medium of cells stably expressing Amyloid Precursor Protein (APP); assay: In vitro BACE cell-based assay (Aβ40 in conditioned medium, sandwich ELISA); conditions: read-out: HEK cell assay
In short: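 The sandwich ELISA pairs pAb40 capture (3 h, 4 °C) with 6E10 detection (2 h, 4 °C) and a streptavidin-europium TRF read-out. Supernatants come from APP-expressing cells grown in 10% FBS DMEM.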

[3] = Homo sapiens, HEK293, average IC50
[4] = Homo sapiens, HEK293, average IC50, HEK cells

Sequence of Beta Secretase enzyme (BACE) (P56817 46-501, species assumed): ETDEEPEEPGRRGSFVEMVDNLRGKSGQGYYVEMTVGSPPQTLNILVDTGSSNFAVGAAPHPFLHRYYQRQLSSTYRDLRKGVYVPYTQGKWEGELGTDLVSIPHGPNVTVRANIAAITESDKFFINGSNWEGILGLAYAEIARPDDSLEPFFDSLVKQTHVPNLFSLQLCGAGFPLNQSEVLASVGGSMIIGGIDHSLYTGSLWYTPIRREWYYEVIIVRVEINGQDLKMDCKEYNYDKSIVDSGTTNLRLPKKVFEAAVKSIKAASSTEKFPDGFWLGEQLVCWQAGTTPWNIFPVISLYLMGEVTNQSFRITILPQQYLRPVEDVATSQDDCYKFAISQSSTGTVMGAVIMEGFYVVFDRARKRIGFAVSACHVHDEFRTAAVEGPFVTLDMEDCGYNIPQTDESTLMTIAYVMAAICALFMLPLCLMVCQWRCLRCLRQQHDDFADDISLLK

Row | SMILES | IC50 [1] [nM] | IC50 [2, 3] [nM] | IC50 [2, 4] [nM] | IC50 ([2]; average IC50, HEK cells) [nM]
1 | COc1cc(F)c2c(c1)[C@]1(COC(N)=N1)c1cc(-c3cncc(C#CC4(C)COC4)c3)ccc1O2 [Example 821, (4S)-4′-fluoro-2′-methoxy-7′-(5-((3-methyl-3-oxetanyl)ethynyl)-3-pyridinyl)spiro[1,3-oxazole-4,9′-xanthen]-2-amine] | 51.4 | 2900 |  | 
2 | COc1cccc(COc2ccc3c(c2)[C@@]2(COC(N)=N2)c2cc(-c4cccnc4)cnc2O3)c1 [Example 983, (5S)-7-((3-methoxybenzyl)oxy)-3-(3-pyridinyl)spiro[chromeno[2,3-b]pyridine-5,4′-[1,3]oxazol]-2′-amine] | 24.6 | 314 |  | 
3 | CC1(C)C[C@H](c2cc(F)c3c(c2)[C@]2(COC(N)=N2)c2cc(-c4cnccn4)ccc2O3)CCO1 [Example 450, (4S)-2′-((4R)-2,2-dimethyltetrahydro-2H-pyran-4-yl)-4′-fluoro-7′-(2-pyrazinyl)spiro[1,3-oxazole-4,9′-xanthen]-2-amine] | 2.4 |  | 17.7 | 
4 | NC1=N[C@@]2(CO1)c1cc(-c3cncc(F)c3)ccc1Oc1c(F)cc(C3=CCOC3)cc12 [Example 288, (4S)-2′-(2,5-dihydro-3-furanyl)-4′-fluoro-7′-(5-fluoro-3-pyridinyl)spiro[1,3-oxazole-4,9′-xanthen]-2-amine] | 0.3 | 4.1 |  | 
5 | CC1(/C=C/c2cnc3c(c2)[C@]2(COC(N)=N2)c2cc(-c4cc(Cl)ccc4F)ccc2O3)COC1 [Example 177, (5S)-7-(5-chloro-2-fluorophenyl)-3-((E)-2-(3-methyl-3-oxetanyl)ethenyl)spiro[chromeno[2,3-b]pyridine-5,4′-[1,3]oxazol]-2′-amine] | 0.4 | 1.8 |  | 
6 | NC1=N[C@@]2(CS1)c1cc(-c3cncc(F)c3)ccc1Oc1cnc(C3=CCOCC3)cc12 [Example 619, (5S)-3-(3,6-dihydro-2H-pyran-4-yl)-7-(5-fluoro-3-pyridinyl)spiro[chromeno[2,3-c]pyridine-5,4′-[1,3]thiazol]-2′-amine] | 0.4 |  |  | 8
7 | CC#Cc1cncc(-c2ccc3c(c2)[C@@]2(COC(N)=N2)c2cc(C4=CCOCC4)nc(F)c2O3)c1 [Example 760, (5S)-3-(3,6-dihydro-2H-pyran-4-yl)-1-fluoro-7-(5-(1-propyn-1-yl)-3-pyridinyl)spiro[chromeno[2,3-c]pyridine-5,4′-[1,3]oxazol]-2′-amine] | 0.3 | 2 |  | 
8 | COc1ncccc1-c1ccc2c(c1)[C@@]1(COC(N)=N1)c1cc(-c3ccnc(F)c3)ncc1O2 [Example 239, (5S)-3-(2-fluoro-4-pyridinyl)-7-(2-methoxy-3-pyridinyl)spiro[chromeno[2,3-c]pyridine-5,4′-[1,3]oxazol]-2′-amine] | 33.5 | 389 |  | 
9 | NC1=N[C@]2(CO1)c1cc(I)ccc1Oc1ncc(Br)cc12 [Example 1017, (5R)-3-bromo-7-iodospiro[chromeno[2,3-b]pyridine-5,4′-[1,3]oxazol]-2′-amine] | 27600 | 886 |  | 
10 | Cc1ccc(Oc2ccc3c(c2)[C@@]2(COC(N)=N2)c2cc(C4=CCOCC4)cc(F)c2O3)nc1 [Example 1064, (4S)-2′-(3,6-dihydro-2H-pyran-4-yl)-4′-fluoro-7′-((5-methyl-2-pyridinyl)oxy)spiro[1,3-oxazole-4,9′-xanthen]-2-amine] | 21.1 | 442 |  | 
11 | NC1=N[C@]2(CO1)c1cc(-c3cccnc3F)ccc1Oc1c2cc(C2=CCOCC2)c(F)c1F [Example 1010, (4R)-2′-(3,6-dihydro-2H-pyran-4-yl)-3′,4′-difluoro-7′-(2-fluoro-3-pyridinyl)spiro[1,3-oxazole-4,9′-xanthen]-2-amine] | 9.4 | 647 |  | 
12 | NC1=N[C@@]2(CO1)c1cc(-c3ccc(F)cc3)ccc1Oc1cnc(C3=CCOCC3)cc12 [Example 394, (5S)-3-(3,6-dihydro-2H-pyran-4-yl)-7-(4-fluorophenyl)spiro[chromeno[2,3-c]pyridine-5,4′-[1,3]oxazol]-2′-amine] | 9.4 |  | 138 | 
13 | CC(C)(C)COc1ccc2c(c1)[C@]1(COC(N)=N1)c1c(ccc(-c3cncnc3)c1F)O2 [Example 515, (4R)-7′-(2,2-dimethylpropoxy)-1′-fluoro-2′-(5-pyrimidinyl)spiro[1,3-oxazole-4,9′-xanthen]-2-amine] | 1.3 |  | 28.5 | 
14 | NC1=N[C@@]2(CO1)c1cc(-c3cccnc3F)ccc1Oc1c(F)cc(-c3ccc(F)nc3)cc12 [Example 640, (4S)-4′-fluoro-7′-(2-fluoro-3-pyridinyl)-2′-(6-fluoro-3-pyridinyl)spiro[1,3-oxazole-4,9′-xanthen]-2-amine] | 1.2 |  | 23 | 
15 | CC#Cc1cnc(F)c(-c2ccc3c(c2)[C@@]2(COC(N)=N2)c2cc(C4=CCOCC4)cnc2O3)c1 [Example 953, (5S)-3-(3,6-dihydro-2H-pyran-4-yl)-7-(2-fluoro-5-(1-propyn-1-yl)-3-pyridinyl)spiro[chromeno[2,3-b]pyridine-5,4′-[1,3]oxazol]-2′-amine] | 0.3 |  | 4 | 
16 | CN(C)c1cc2c(cn1)Oc1ccc(-c3cccnc3)cc1C21CSC(N)=N1 [Example 889, (5R)-N~3~,N~3~-dimethyl-7-(3-pyridinyl)spiro[chromeno[2,3-c]pyridine-5,4′-[1,3]thiazole]-2′,3-diamine, (5S)-N~3~,N~3~-dimethyl-7-(3-pyridinyl)spiro[chromeno[2,3-c]pyridine-5,4′-[1,3]thiazole]-2′,3-diamine] | 19.9 |  | 540 | 
17 | NC1=N[C@@]2(CS1)c1cc(-c3cncnc3)c(F)cc1Oc1c(F)cc(C3=CCCOC3)cc12 [Example 873, (4S)-7′-(5,6-dihydro-2H-pyran-3-yl)-3′,5′-difluoro-2′-(5-pyrimidinyl)spiro[1,3-thiazole-4,9′-xanthen]-2-amine] | 0.3 |  | 7 | 
18 | NC1=N[C@@]2(CO1)c1cc(-c3cccnc3)ccc1Oc1c2cc(C2=CCOCC2)c(F)c1F [Example 1007, (4S)-2′-(3,6-dihydro-2H-pyran-4-yl)-3′,4′-difluoro-7′-(3-pyridinyl)spiro[1,3-oxazole-4,9′-xanthen]-2-amine] | 1.9 | 24 |  | 
19 | COc1ncc(-c2ccc3c(c2)[C@@]2(COC(N)=N2)c2cc(/C=C/C(C)(C)C)ncc2O3)cn1 [Example 406, (5S)-3-((1E)-3,3-dimethyl-1-buten-1-yl)-7-(2-methoxy-5-pyrimidinyl)spiro[chromeno[2,3-c]pyridine-5,4′-[1,3]oxazol]-2′-amine] | 183 |  | 712 | 
20 | Cc1cc(-c2cc(F)c3c(c2)[C@]2(COC(N)=N2)c2cc(OCC4(C)COC4)ccc2O3)ccn1 [Example 439, (4S)-4′-fluoro-7′-((3-methyl-3-oxetanyl)methoxy)-2′-(2-methyl-4-pyridinyl)spiro[1,3-oxazole-4,9′-xanthen]-2-amine] | 186 |  | 156 | 
21 | NC1=N[C@@]2(CO1)c1cc(-c3cnccn3)ccc1Oc1c(F)cc(C3CCOCC3)cc12 [Example 935, (4S)-4′-fluoro-7′-(2-pyrazinyl)-2′-(tetrahydro-2H-pyran-4-yl)spiro[1,3-oxazole-4,9′-xanthen]-2-amine] | 6.6 |  | 82 | 

— patent US8883782B2, “Spiro-tetracyclic ring compounds as beta-secretase modulators and methods of use” (Amgen Inc., priority 2010, dated 2014)
